Data from patent US20130210907A1, “METHOD FOR PREVENTING OR TREATING ENTEROCHROMAFFIN CELL HYPERPLASIA-RELATED DISEASES BY QUERCETIN ADMINISTRATION” (HONG KONG BAPTIST UNIVERSITY, priority 2012, published 2013).

Assays:
p21 = test: Western blot of p21 in QGP-1 cells; format: cell-based, human; details: QGP-1, 50-100 nM (so in the source), 24 h
Method: After drug treatment, the cells are lysed and centrifuged to collect the protein extract After determination of protein content, the samples protein are denatured at 100° C. for 5 min Proteins are separated by 10-12% SDS-PAGE and transferred to PVDF membranes (Bio-Rad, CA). After blocking with 5% nonfat milk for 1 h at room temperature, the membranes are incubated overnight at 4° C. with primary antibodies (mouse anti-cyclin BE 1:500, Abcam; goat anti-p-Cdc2:1:500, Santa Cruz; mouse anti-p21: 1:500, BD Bioscience). After washing three times in TBST, the membranes where incubated with the appropriate secondary antibodies (1:2000, Invitrogen) for 1 h at room temperature. The immunoreaction is detected using ECL Western blotting kit (ECL, Amersham, UK). Bands are visualized on Biomax X-ray film, and optical density of each band is semi-quantified by software (Image J.NIH). In order to adjust for any variations in loading, all detected protein bands are normalized to β-actin levels.

TPH = test: Colonic TPH expression by Western blot; format: in vivo, rat
Method: The colon tissues are homogenized and sonicated on ice for protein extraction. After determination of protein content, the samples protein are denatured at 100° C. for 5 min. Proteins are separated by 10% SDS-PAGE and transferred to PVDF membranes (Bio-Rad, CA). After blocking with 5% nonfat milk, the membranes are incubated overnight at 4° C. with rabbit anti-TPH antibody (1:1000, Santa Cruz, Calif.), then incubated with the appropriate secondary antibodies for 1 h at room temperature. The immunoreaction is detected using ECL Western blotting kit (ECL, Amersham, UK). Bands are visualized on Biomax X-ray film, and optical density of each band is semi-quantified by computer software (Image J.NIH). All detected protein bands are normalized to β-actin levels.

normal rats [1] = test: Colonic EC cell density in normal rats; format: in vivo, rat; details: 10 mg/kg i.g., 14 days
Method: Tissue sections (5-μm thick) are deparaffinized and rehydrated for silver staining. Briefly, sections are incubated with 5% ammoniacal silver solution for 4 h at room temperature, then 2 h in 56° C. and subsequently 12 h at room temperature in a dark humidified chamber. After rinsing with water, 5% sodium hyposulfite is added and the tissue sections are incubated for 5 min at room temperature. The brown to black silver precipitate in the cytoplasm of EC cells represents as a positive reaction. A researcher blinded to treatment counted 5 random fields at 200× magnifications for each section, and the number of EC cells per mm^2 of mucosa is quantified using Image J NIH software.
(§1) To identify whether the effects of Quercerin in PI-IBS rats are specific, pain threshold pressure, colonic EC cell number and 5-HT content are further evaluated in normal rats treated with Quercetin. Briefly, Quercetin at the dose of 10 mg/kg is administered to normal rats orally for 14 days. After the final drug administration, pain threshold pressure, colonic EC cell density and 5-HT content are evaluated and the methods used here are as same as that shown in above experiments.

QGP-1 cells [2] = test: Sub-G0/G1 fraction by flow cytometry; format: cell-based, human; details: QGP-1, 25~100 μM, 24 h
Method: QGP-1 cells are seeded at a density of 10×10^4 cells/ml and pre-incubated overnight. After incubation with or without Quercetin (0-100 μM) for 24 h, cells are harvested by trypsinization and fixed in 70% ethanol at 4° C. overnight. The cells are centrifuged to remove ethanol and washed twice using ice-cold PBS. The cell pallets are resuspended in 500 n1 propidium iodide solution (0.1% Triton X-100, 50 μg/ml propidium iodide in PBS) containing 50 μg/ml RNase and incubated at 37° C. for 30 min and protected from the light. The DNA content of 10,000 cells is detected by BD FASCanto Flow Cytometry and analyzed using CellFit software (Becton Dickinson, Heidelberg, Germany). The data are representative of those obtained in at least three experiments.
For flow cytometric analysis, cells with sub-G0/G1 DNA content are stained with propidium iodide, and the methods are as described in section 2 of Example 8. […] Based on the results form LDH assay and apoptosis detection, Quercetin indeed has cytotoxicity and can further induce cell apoptosis.

normal rats [3] = test: Colonic 5-HT content in normal rats; format: in vivo, rat; details: 10 mg/kg i.g., 14 days
Method: 5-HT content in the colon tissue is assayed based on our previously reported procedure in Qi S D, Tian S L, Xu H X, Sung J J, Bian Z X. Quantification of luminally released serotonin in rat proximal colon by capillary electrophoresis with laser-induced fluorescence detection. Anal Bioanal Chem. 2009 April; 393(8):2059-66. Briefly, the colon segment is homogenized in 15% iced trichloroacetic acid; for 2 min and stored at 4° C. for 2 h. After centrifuge at 10,000 G for 15 min, the supernatant of each sample is filtered using 0.22 μm filters and extracted with diethyl ether for five times to remove the trichloroacetic acid. The prepared samples are added to derivatization solution (150 mM sodium tetraborate, 25% acetonitrile, 2 mM CFSE) and incubated for […] in dark at room temperature. The 5-HT content is analyzed by capillary electrophoresis with laser-induced fluorescence detection and expressed as nanogram per milligram (wet weight of tissue).
as §1, with “Briefly, Quercetin at the dose of 10 mg/kg is administered to normal rats orally for 14 days.” left out

QGP-1 cells [4] = test: Cell viability (MTT assay); format: cell-based; details: Homo sapiens
Method: To investigate the underlying mechanisms of Quercein on EC cell hyperplasia, a EC cell model, QGP-1 cell line is used as EC cell model. Human pancreatic carcinoma QGP-1 cells (JCRB0183, HSRRB, Japan) are cultured in RPMI 1640 supplemented with 10% fetal bovine serum, 100 IU/ml penicillin, and 100 μg/ml streptomycin in a humidified atmosphere of 95% air and 5% CO2 at 37° C. Cells are passaged using 0.025% trypsin and 0.01% EDTA. Cells are trypsinized and seeded in 96-well culture dishes at a density of 5,000-8,000 cells/well and cultured for 24 h or 48 h in the presence of Quercetin (0-100 μM, 0.01% DMSO).
3-(4,5-dimethylthiazol-2yl-)-2,5-diphenyl tetrazolium bromide (MTT) is used to evaluate cell viability. In this assay, cells are seeded in 96-well dishes and cultured for […] in the presence of Quercetin. Subsequently, the culture medium is replaced with 100 μl/well fresh medium containing 0.5 mg/ml MTT, and the cells are further incubated for 4 h at 37° C. The reaction is stopped by adding 100 μl/well 10% SDS in 0.1 M HCl, the absorbance of the plates is read at 570 nm The percent of cell survival is calculated by comparing the average absorbance of the Quercetin treated cells with the corresponding absorbance of the DMSO treated cells. All doses are tested in triplicates and repeated for at least three times.

For `O=c1c(O)c(-c2ccc(O)c(O)c2)oc2cc(O)cc(O)c12` [Quercetin, 2-(3,4-dihydroxyphenyl)-3,5,7-trihydroxy-4H-chromen-4-one], the “Protein level of p21” value (p21) was “significantly increased”, the TPH/actin ratio (TPH; PI-IBS rats, colon, 10 mg/kg i.g.) was 0.62 ± 0.11 and the “Reduction of colonic TPH expression in PI-IBS rats” value (TPH; median dose, 10 mg/kg, p<0.05) was ~22.8%. The EC cell density (normal rats [1]) was 91 ± 10 Number/mm^2, the Sub-G0/G1 fraction (QGP-1 cells [2]) was “concentration-dependently increases” and the 5-HT content (normal rats [3]) was 4.06 ± 0.48 ng/mg. The cytotoxicity at 100 µM (QGP-1 cells [4]; QGP-1, 24 h, at about 100 μM, read-out: Reduction of cell viability in comparison with the control) was ~50% and the IC50 (QGP-1 cells [4]; QGP-1, 48 h incubation) was ~50 µM.
